Literature values as cited in patent publication US20050032777A1, “Diazacycloalkanes as oxytocin agonists” (priority 2001, published 2005).
Read-outs that look alike come from different tables or passages of the source.

System: erectile response
Settings: male rats

For `CC[C@H](C)[C@@H]1NC(=O)[C@H](Cc2ccc(O)cc2)NC(=O)[C@@H](N)CSSC[C@@H](C(=O)N2CCC[C@H]2C(=O)N[C@@H](CC(C)C)C(=O)NCC(N)=O)NC(=O)[C@H](CC(N)=O)NC(=O)[C@H](CCC(N)=O)NC1=O` [OT, oxytocin], the erectogenic activity (i.c.v.) is given as “erectogenic” and the erectogenic activity (iv., doses up to two orders of magnitude greater than i.c.v.) is given as “erectogenic activity”.
